In ChEMBL document CHEMBL5137059, “An Intelligent Strategy with All-Atom Molecular Dynamics Simulations for the Design of Lipopeptides against Multidrug-Resistant Pseudomonas aeruginosa” (2022):
≈ marks a conversion by molar mass, not a printed value. Positions of bridges follow the written chain, without caps; N, C: chain ends. Non-standard residues stand in square brackets, D forms with d. Residues, ends and D or L forms follow the SMILES beside them. *: point of attachment. Benzoyl(4-Ph) = O=C(c1ccc(-c2ccccc2)cc1)*; Bip = N[C@@H](Cc1ccc(-c2ccccc2)cc1)C(=O)O; dBip = N[C@H](Cc1ccc(-c2ccccc2)cc1)C(=O)O; dGly(nOct) = CCCCCCCC[C@@H](N)C(=O)O; Gly(octyl) = CCCCCCCC[C@H](N)C(=O)O; Octanoyl = CCCCCCCC(=O)*; Dab = NCC[C@H](N)C(=O)O; Bn = c1ccc(C*)cc1

Experiments:
Assay type in all cases: functional
[1] = test system: Pseudomonas aeruginosa; test: Antimicrobial activity against polymyxin resistant Pseudomonas aeruginosa FADDI-PA060 assessed as microbial growth inhibition measured at 18 to 20 hrs by broth microdilution assay; conditions: time 18-20 hrs
[2] = test system: Pseudomonas aeruginosa; test: Antimicrobial activity against polymyxin resistant Pseudomonas aeruginosa FADDI-PA070 assessed as microbial growth inhibition measured at 18 to 20 hrs by broth microdilution assay; conditions: time 18-20 hrs
[3] = test system: Pseudomonas aeruginosa; test: Antimicrobial activity against Pseudomonas aeruginosa PW7028 assessed as microbial growth inhibition measured after 20 hrs by CLSI-protocol based broth microdilution assay
[4] = test system: Pseudomonas aeruginosa; test: Antimicrobial activity against Pseudomonas aeruginosa PAO1 assessed as microbial growth inhibition measured after 20 hrs by CLSI-protocol based broth microdilution assay
[5] = test system: Pseudomonas aeruginosa; test: Disruption of membrane integrity in polymyxin resistant Pseudomonas aeruginosa FADDI-PA065 assessed as fold increase by measuring cellular fluorescence intensity at 8 mg/L incubated for 4 hrs by DiBAC and PI staining based flow cytometry analysis
[6] = test system: Pseudomonas aeruginosa; test: Disruption of membrane integrity in polymyxin resistant Pseudomonas aeruginosa FADDI-071 assessed as fold increase by measuring cellular fluorescence intensity at 8 mg/L incubated for 4 hrs by DiBAC and PI staining based flow cytometry analysis
[7] = test system: Pseudomonas aeruginosa; test: Antimicrobial activity against polymyxin resistant Pseudomonas aeruginosa FADDI-PA065 assessed as microbial growth inhibition measured after 20 hrs by CLSI-protocol based broth microdilution assay
[8] = test system: Pseudomonas aeruginosa; test: Antimicrobial activity against polymyxin resistant Pseudomonas aeruginosa FADDI-PA071 assessed as microbial growth inhibition measured after 20 hrs by CLSI-protocol based broth microdilution assay
[9] = test system: Pseudomonas aeruginosa; test: Antimicrobial activity against Pseudomonas aeruginosa PAO1R assessed as microbial growth inhibition measured after 20 hrs by CLSI-protocol based broth microdilution assay

Compound	MIC [1]	MIC [2]	MIC [3]	MIC [4]	fold change (FC) [5]	fold change (FC) [6]	MIC [7]	MIC [8]	MIC [9]
CCCCCCCC(=O)N[C@@H](CCN)C(=O)N[C@H](C(=O)N[C@@H](CCN)C(=O)N[C@H]1CCNC(=O)[C@H]([C@@H](C)O)NC(=O)[C@H](CCN)NC(=O)[C@H](CCN)NC(=O)[C@H](CSCc2ccccc2)NC(=O)[C@@H](Cc2ccccc2)NC(=O)[C@H](CCN)NC1=O)[C@@H](C)O (Octanoyl-[Dab]T[Dab][Dab][Dab][dF]C(Bn)[Dab][Dab]T; lactam 4-C)	32 µg/mL (≈ 25.2 µM)	> 32 µg/mL	–	–	–	–	–	–	–
CCCCCCCC(=O)N[C@@H](CCN)C(=O)N[C@H](C(=O)N[C@@H](CCN)C(=O)N[C@H]1CCNC(=O)[C@H]([C@@H](C)O)NC(=O)[C@H](CCN)NC(=O)[C@H](CCN)NC(=O)[C@H](CC(C)C)NC(=O)[C@@H](Cc2ccc(-c3ccccc3)cc2)NC(=O)[C@H](CCN)NC1=O)[C@@H](C)O (Octanoyl-[Dab]T[Dab][Dab][Dab][dBip]L[Dab][Dab]T; lactam 4-C)	8 µg/mL (≈ 6.32 µM)	4 µg/mL (≈ 3.16 µM)	–	–	–	–	–	–	–
CCCCCCCC[C@H]1NC(=O)[C@H](CCN)NC(=O)[C@@H](NC(=O)[C@H](CCN)NC(=O)[C@@H](NC(=O)[C@H](CCN)NC(=O)CCCCCCC)[C@@H](C)O)CCNC(=O)[C@H]([C@@H](C)O)NC(=O)[C@H](CCN)NC(=O)[C@H](CCN)NC(=O)[C@H](CC(C)C)NC1=O (Octanoyl-[Dab]T[Dab][Dab][Dab][dGly(nOct)]L[Dab][Dab]T; lactam 4-C)	2 µg/mL (≈ 1.65 µM)	2 µg/mL (≈ 1.65 µM)	4 µg/mL (≈ 3.3 µM)	4 µg/mL (≈ 3.3 µM)	18.8	18.8	2 µg/mL (≈ 1.65 µM)	4 µg/mL (≈ 3.3 µM)	8 µg/mL (≈ 6.6 µM)
CCCCCCCC[C@H]1NC(=O)[C@H](CCN)NC(=O)[C@@H](NC(=O)[C@H](CCN)NC(=O)[C@@H](NC(=O)[C@H](CCN)NC(=O)c2ccccc2)[C@@H](C)O)CCNC(=O)[C@H]([C@@H](C)O)NC(=O)[C@H](CCN)NC(=O)[C@H](CCN)NC(=O)[C@H](CC(C)C)NC1=O	32 µg/mL (≈ 26.9 µM)	32 µg/mL (≈ 26.9 µM)	–	–	–	–	–	–	–
CCCCCCCC(=O)N[C@@H](CCN)C(=O)N[C@H](C(=O)N[C@@H](CCN)C(=O)N[C@H]1CCNC(=O)[C@H]([C@@H](C)O)NC(=O)[C@H](CCN)NC(=O)[C@H](CCN)NC(=O)[C@H](Cc2ccc(-c3ccccc3)cc2)NC(=O)[C@@H](Cc2ccccc2)NC(=O)[C@H](CCN)NC1=O)[C@@H](C)O (Octanoyl-[Dab]T[Dab][Dab][Dab][dF][Bip][Dab][Dab]T; lactam 4-C)	8 µg/mL (≈ 6.16 µM)	4 µg/mL (≈ 3.08 µM)	–	–	–	–	–	–	–
CCCCCCCC(=O)N[C@@H](CCN)C(=O)N[C@H](C(=O)N[C@@H](CCN)C(=O)N[C@H]1CCNC(=O)[C@H]([C@@H](C)O)NC(=O)[C@H](CCN)NC(=O)[C@H](CCN)NC(=O)[C@H](Cc2ccccc2)NC(=O)[C@@H](Cc2ccccc2)NC(=O)[C@H](CCN)NC1=O)[C@@H](C)O	> 32 µg/mL	> 32 µg/mL	–	–	–	–	–	–	–
C[C@@H](O)[C@@H]1NC(=O)[C@H](CCN)NC(=O)[C@H](CCN)NC(=O)[C@H](Cc2ccc(-c3ccccc3)cc2)NC(=O)[C@@H](Cc2ccccc2)NC(=O)[C@H](CCN)NC(=O)[C@@H](NC(=O)[C@H](CCN)NC(=O)[C@@H](NC(=O)[C@H](CCN)NC(=O)c2ccc(-c3ccccc3)cc2)[C@@H](C)O)CCNC1=O ({Benzoyl(4-Ph)}-[Dab]T[Dab][Dab][Dab][dF][Bip][Dab][Dab]T; lactam 4-C)	8 µg/mL (≈ 5.91 µM)	16 µg/mL (≈ 11.8 µM)	–	–	–	–	–	–	–
COLISTIN	> 128 µg/mL	> 128 µg/mL	1 µg/mL	2 µg/mL	2.33	2.33	> 128 µg/mL	> 128 µg/mL	> 32 µg/mL
CCCCCCCC[C@@H]1NC(=O)[C@@H](Cc2ccccc2)NC(=O)[C@H](CCN)NC(=O)[C@@H](NC(=O)[C@H](CCN)NC(=O)[C@@H](NC(=O)[C@H](CCN)NC(=O)CCCCCCC)[C@@H](C)O)CCNC(=O)[C@H]([C@@H](C)O)NC(=O)[C@H](CCN)NC(=O)[C@H](CCN)NC1=O (Octanoyl-[Dab]T[Dab][Dab][Dab][dF][Gly(octyl)][Dab][Dab]T; lactam 4-C)	2 µg/mL (≈ 1.61 µM)	4 µg/mL (≈ 3.21 µM)	2 µg/mL (≈ 1.61 µM)	4 µg/mL (≈ 3.21 µM)	19.6	19.6	1 µg/mL (≈ 0.803 µM)	4 µg/mL (≈ 3.21 µM)	8 µg/mL (≈ 6.42 µM)
